Measured values taken from patent US20200131142A1, “FARNESOID X RECEPTOR AGONISTS AND USES THEREOF” (Metacrine, Inc., priority 2017, published 2020).

What follows are compounds tested against T1, hFXR (Homo sapiens, UniProt Q96RI1) (assay: In Vitro FXR Assay (TK): hFXR/hRXR TK-ECRE-luc reporter in transfected CV-1 cells). Conditions: 18 hrs incubation, luminescence, compounds with maximum efficacy <25% of the Fexarmine control classified as '+'.
T1 construct: expressed in transfected cells; host or cells: CV-1 cells
T1 sequence (Q96RI1 1-486): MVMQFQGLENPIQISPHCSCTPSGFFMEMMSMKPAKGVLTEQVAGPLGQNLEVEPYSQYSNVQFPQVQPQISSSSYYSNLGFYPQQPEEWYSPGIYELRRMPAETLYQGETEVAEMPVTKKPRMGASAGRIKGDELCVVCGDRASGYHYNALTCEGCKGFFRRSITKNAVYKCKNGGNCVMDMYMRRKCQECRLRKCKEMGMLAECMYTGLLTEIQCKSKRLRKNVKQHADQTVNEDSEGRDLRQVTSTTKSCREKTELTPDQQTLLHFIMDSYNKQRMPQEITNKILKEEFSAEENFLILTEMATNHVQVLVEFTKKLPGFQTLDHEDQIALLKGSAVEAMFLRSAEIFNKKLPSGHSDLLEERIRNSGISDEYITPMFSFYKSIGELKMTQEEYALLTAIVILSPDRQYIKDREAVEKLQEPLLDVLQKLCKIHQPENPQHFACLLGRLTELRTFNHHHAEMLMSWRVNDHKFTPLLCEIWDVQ
T1 sequence (P19793 1-462 partner): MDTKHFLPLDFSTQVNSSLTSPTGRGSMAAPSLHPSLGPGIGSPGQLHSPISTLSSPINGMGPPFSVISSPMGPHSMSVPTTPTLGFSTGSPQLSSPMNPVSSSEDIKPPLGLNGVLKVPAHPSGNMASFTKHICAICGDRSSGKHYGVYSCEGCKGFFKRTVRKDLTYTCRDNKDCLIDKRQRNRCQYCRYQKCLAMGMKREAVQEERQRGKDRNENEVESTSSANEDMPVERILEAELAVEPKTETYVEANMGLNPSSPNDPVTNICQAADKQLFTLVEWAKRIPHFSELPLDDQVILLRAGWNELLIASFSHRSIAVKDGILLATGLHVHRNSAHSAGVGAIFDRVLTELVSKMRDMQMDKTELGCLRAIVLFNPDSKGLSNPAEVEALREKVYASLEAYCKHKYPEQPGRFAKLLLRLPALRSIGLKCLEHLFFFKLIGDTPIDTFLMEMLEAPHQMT
Format: cell-based
Procedure, shortened: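 Reporter gene assay: CV-1 cells co-expressing hFXR, hRXR, TK-ECRE-luc and pCMX-YFP after overnight transfection in charcoal-stripped serum. Treatment with serially diluted compounds lasted 18 hrs at 37 °C, followed by cell lysis and a luminescence measurement.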

| Structure (SMILES) | EC50 [nM] |
| --- | --- |
| COc1ccc([C@H]2CC[C@H](CN(c3cccc(-c4cnc(C5CC5)s4)c3)C(=O)[C@H]3CC[C@H](N(C)C)CC3)CC2)cc1C [Compound 13, trans-N-(3-(2-Cyclopropylthiazol-5-yl)phenyl)-4-(dimethylamino)-N-((trans-4-(4-methoxy-3-methylphenyl)cyclohexyl)methyl) cyclohexanecarboxamide] | ≥ 1000 |
| COc1ncc(-c2cccc(N(C[C@H]3CC[C@H](c4ccc(OC)c(C)c4)CC3)C(=O)[C@H]3CC[C@H](N)CC3)c2)s1 [Compound 13.01, trans-4-Amino-N-((trans-4-(4-methoxy-3-methylphenyl)cyclohexyl)methyl)-N-(3-(2-methoxythiazol-5-yl)phenyl)cyclohexanecarboxamide] | ≥ 1000 |
| COc1ccc([C@H]2CC[C@H](CN(c3cccc(CNc4nccs4)c3)C(=O)[C@H]3CC[C@H](O)CC3)CC2)cc1C [Compound 14, trans-4-Hydroxy-N-((trans-4-(4-methoxy-3-methylphenyl)cyclohexyl)methyl)-N-(3-((thiazol-2-ylamino)methyl)phenyl)cyclohexanecarboxamide] | ≥ 1000 |
| COc1ccc([C@H]2CC[C@H](CN(c3cccc(NCc4nccs4)c3)C(=O)[C@H]3CC[C@H](O)CC3)CC2)cc1C [Compound 15, trans-4-Hydroxy-N-((trans-4-(4-methoxy-3-methylphenyl)cyclohexyl)methyl)-N-(3-((thiazol-2-ylmethyl)amino)phenyl)cyclohexanecarboxamide] | 250 to 1000 |
| COc1ccc([C@H]2CC[C@H](CN(c3cccc(OCc4nccs4)c3)C(=O)[C@H]3CC[C@H](O)CC3)CC2)cc1C [Compound 16, trans-4-Hydroxy-N-((trans-4-(4-methoxy-3-methylphenyl)cyclohexyl)methyl)-N-(3-(thiazol-2-ylmethoxy)phenyl)cyclohexanecarboxamide] | ≤ 250 |
| COc1ccc([C@H]2CC[C@H](CN(c3cccc(COc4nccs4)c3)C(=O)[C@H]3CC[C@H](O)CC3)CC2)cc1C [Compound 17, trans-4-Hydroxy-N-((trans-4-(4-methoxy-3-methylphenyl)cyclohexyl)methyl)-N-(3-((thiazol-2-yloxy)methyl)phenyl)cyclohexanecarboxamide] | ≤ 250 |
| COc1ccc([C@H]2CC[C@H](CN(c3cccc(C#Cc4nccs4)c3)C(=O)[C@H]3CC[C@H](O)CC3)CC2)cc1C [Compound 18, trans-4-Hydroxy-N-((trans-4-(4-methoxy-3-methylphenyl)cyclohexyl)methyl)-N-(3-(thiazol-2-ylethynyl)phenyl)cyclohexanecarboxamide] | ≤ 250 |

Second part, the compound after the results:

| EC50 [nM] | Structure (SMILES) |
| --- | --- |
| ≤ 250 | COc1ncc(-c2cccc(N(C[C@H]3CC[C@H](c4ccc(OC)c(C)c4)CC3)C(=O)[C@H]3CC[C@H](OC(C)C)CC3)c2)s1 [Compound 9.34, trans-4-Isopropoxy-N-((trans-4-(4-methoxy-3-methylphenyl)cyclohexyl)methyl)-N-(3-(2-methoxythiazol-5-yl)phenyl)cyclohexanecarboxamide] |
| ≤ 250 | COc1ccc(C23CCC(CN(c4cccc(-c5cnc(C6CC6)s5)c4)C(=O)[C@H]4CC[C@H](O)CC4)(CC2)CC3)cc1C [Compound 10, trans-N-(3-(2-Cyclopropylthiazol-5-yl)phenyl)-4-hydroxy-N-((4-(4-methoxy-3-methylphenyl)bicyclo[2.2.2]octan-1-yl)methyl)cyclohexanecarboxamide] |
| ≤ 250 | COc1ncc(-c2cccc(N(CC34CCC(c5ccc(OC)c(C)c5)(CC3)CC4)C(=O)[C@H]3CC[C@H](O)CC3)c2)s1 [Compound 11, trans-4-Hydroxy-N-((4-(4-methoxy-3-methylphenyl)bicyclo[2.2.2]octan-1-yl)methyl)-N-(3-(2-methoxythiazol-5-yl)phenyl)cyclohexanecarboxamide] |
| ≤ 250 | COc1ncc(-c2cccc(N(CC3CCC(c4ccc(OC)c(C)c4)CC3C)C(=O)[C@H]3CC[C@H](O)CC3)c2)s1 (stereo partly drawn) [Compound 12, trans-4-Hydroxy-N-((4-(4-methoxy-3-methylphenyl)-2-methylcyclohexyl)methyl)-N-(3-(2-methoxythiazol-5-yl)phenyl)cyclohexanecarboxamide] |
